Data: article PMC6150336, “Hepatotoxicity Induced by Sophora flavescens and Hepatic Accumulation of Kurarinone, a Major Hepatotoxic Constituent of Sophora flavescens in Rats” (Molecules : A Journal of Synthetic Chemistry and Natural …, 2017)
Read-outs that look alike come from different tables or passages of the source. One block for each molecule: values may come before it.

Tests used:
[1] = ESF tissue distribution study in rats; type: in vivo, rat; settings: for AUC(0-t): male, rat
Protocol: Male rats were divided into five groups corresponding to five experimental time points (n = 3 in each group). Rats under urethane anesthesia were sacrificed by bleeding from the abdominal aorta and hepatic portal vein at 15 min, 30 min, 1 h, 2 h, and 4 h time points (3 rats/time point) after a p.o. dose of ESF (2.5 g/kg). The liver, kidneys, heart, skeletal muscles, small intestine, and bile were harvested and homogenized in threefold volume of ice-cold saline. Kurarinone levels in vivo in the plasma and liver were examined at the time points when blood biochemistry parameters were measured. Kurarinone and kurarinone glucuronides levels were detected by LC-MS/MS [24, 25].

HL-7702 cells = test: Effect of kurarinone on triglyceride levels in HL-7702 cells; type: cell-based, human; settings: HL 7702 cells exposed for 24 h
Protocol: HL-7702 cells were cultured in RPMI-1640 medium (Gibco, Grand Island, NY, USA) containing 10% fetal bovine serum (FBS) (Gibco, USA) in a humidified atmosphere of 5% CO2 at 37 °C. The cells were seeded in 24-well plates, cultured for 24 h, and incubated with kurarinone (1, 8, 16, 24, 32, 44, and 60 μM) dissolved in RPMI-1640 medium without FBS for 24 h. Triglyceride levels were determined using a triglyceride assay kit (Nanjing Jiancheng Bioengineering Institute) according to the manufacturer’s instructions.

[2] = method and reference not given; cited from earlier work
[3] = AUC0–4h after oral administration of ESF (2.5 g/kg) in rats

Exposure of liver compared with plasma ([1]; ESF (2.5 g/kg) orally in rats): much higher | Form of kurarinone in visceral organs ([1]; ESF-treated rats): predominant | AUC(0-t) ([1]; bile, AUC0–4h after oral administration of ESF (2.5 g/kg) in rats, read-out: AUC0–t Biliary Secretion): 0.8 µM·h | AUC(0-t) ([1]; heart, AUC0–4h after oral administration of ESF (2.5 g/kg) in rats, read-out: AUC0–t Heart): 4.7 µM·h | AUC(0-t) ([1]; hepatic portal vein plasma, AUC0–4h after oral administration of ESF (2.5 g/kg) in rats, read-out: AUC0–t Protal Plasma): 4.4 µM·h | AUC(0-t) ([1]; kidney, AUC0–4h after oral administration of ESF (2.5 g/kg) in rats, read-out: AUC0–t Kidney): 5.4 µM·h | AUC(0-t) ([1]; liver, AUC0–4h after oral administration of ESF (2.5 g/kg) in rats, read-out: AUC0–t Liver): 45.5 µM·h | AUC(0-t) ([1]; skeletal muscle, AUC0–4h after oral administration of ESF (2.5 g/kg) in rats, read-out: AUC0–t Skeletal Muscle): 6.9 µM·h | AUC(0-t) ([1]; small intestine, AUC0–4h after oral administration of ESF (2.5 g/kg) in rats, read-out: AUC0–t Intestine): 21.4 µM·h | AUC(0-t) ([1]; systemic (body) plasma, AUC0–4h after oral administration of ESF (2.5 g/kg) in rats, read-out: AUC0–t Body Plasma): 2.4 µM·h | Triglyceride accumulation (HL-7702 cells; 1-60 μM): accumulated dose-dependently
Molecule: C=C(C)[C@H](CC=C(C)C)Cc1c(O)cc(OC)c2c1O[C@H](c1ccc(O)cc1O)CC2=O [Kurarinone, kurarinone]
EC50 (HL-7702 cells; Homo sapiens, L02, read-out: EC50, increase of triglyceride): 31.2 ± 2.47 µM | log p [2]: 5.6

AUC0–t Biliary Secretion [1, 3]: 93.3 µM·h | AUC0–t Body Plasma [1, 3]: 15.3 µM·h | AUC0–t Heart [1, 3]: 0.1 µM·h | AUC0–t Intestine [1, 3]: 2.2 µM·h | AUC0–t Kidney [1, 3]: 0.7 µM·h | AUC0–t Liver [1, 3]: 1.4 µM·h | AUC0–t Protal Plasma [1, 3]: 25.0 µM·h | AUC0–t Skeletal Muscle [1, 3]: 0.4 µM·h | Form of kurarinone in plasma and bile ([1]; ESF-treated rats): dominant form
Molecule: kurarinone glucuronide
